The values that follow come from ChEMBL document CHEMBL6083239, “Synthesis, optimization and antitumor activity evaluation of sulfonyl benzoyl hydrazide derivatives as novel human LSD1 inhibitors” (Bioorg Med Chem Lett, 2024).

≈ marks a conversion by molar mass, not a printed value.

In data set [1] the test system is HCT-116. Nature of the data set: Antiproliferative activity against human HCT-116 cells by MTT assay. In general terms: Formazan colour is commonly taken as a measure of viable cells.
A further data set deals with MCF7. Nature of the data set: cells. As to conditions: Homo sapiens; call rule not given here.
A further data set has as its system DU-145. In words: Antiproliferative activity against human DU-145 cells by MTT assay.
A short description of data set [2]: Solubility of compound. It is filed as physicochemical.
A further data set has as its system MDA-MB-231. In words: cells. As to conditions: Homo sapiens.
The next data set has as its system A2780. In words: Antiproliferative activity against human A2780 cells by MTT assay.
Another data set concerns A549. In words: cells. As to conditions: Homo sapiens.
The subject of data set [3] is HCT-116. In words: Induction of apoptosis in human HCT-116 cells assessed as necrotic cells at 2 uM by Annexin V-FITC/PI staining based assay (reference value: 1.05%). It is filed as functional.
Data set [4] has as its system HCT-116. In words: Induction of apoptosis in human HCT-116 cells assessed as necrotic cells at 1 uM by Annexin V-FITC/PI staining based assay (reference value: 1.05%). In kind it is functional.
Data set [5] has as its system HCT-116. In words: Induction of apoptosis in human HCT-116 cells assessed as viable cells at 2 uM by Annexin V-FITC/PI staining based assay (reference value: 96.76%). It is filed as functional. As to conditions: read-out: Activity.
The test system of data set [6] is HCT-116. Nature of the data set: Induction of apoptosis in human HCT-116 cells assessed as late apoptotic cells at 1 uM by Annexin V-FITC/PI staining based assay (reference value: 0.37%). It is filed as functional.
Data set [7] has as its system HCT-116. In words: Induction of apoptosis in human HCT-116 cells assessed as early apoptotic cells at 1 uM by Annexin V-FITC/PI staining based assay (reference value: 1.82%). It is filed as functional.
The test system of data set [8] is HCT-116. In words: Induction of apoptosis in human HCT-116 cells assessed as viable cells at 0.5 uM by Annexin V-FITC/PI staining based assay (reference value: 96.76%). It is filed as functional. As to conditions: read-out: Activity.
For data set [9], the system named is HCT-116. Nature of the data set: Induction of apoptosis in human HCT-116 cells assessed as early apoptotic cells at 0.5 uM by Annexin V-FITC/PI staining based assay (reference value: 1.82%). In kind it is functional.
The test system of data set [10] is HCT-116. In words: Induction of apoptosis in human HCT-116 cells assessed as necrotic cells at 0.5 uM by Annexin V-FITC/PI staining based assay (reference value: 1.05%). In kind it is functional.
Data set [11] has as its system HCT-116. Nature of the data set: Induction of apoptosis in human HCT-116 cells assessed as late apoptotic cells at 2 uM by Annexin V-FITC/PI staining based assay (reference value: 0.37%). It is filed as functional.
The test system of data set [12] is HCT-116. Nature of the data set: Induction of apoptosis in human HCT-116 cells assessed as early apoptotic cells at 2 uM by Annexin V-FITC/PI staining based assay (reference value: 1.82%). In kind it is functional.
The subject of data set [13] is HCT-116. Nature of the data set: Induction of apoptosis in human HCT-116 cells assessed as late apoptotic cells at 0.5 uM by Annexin V-FITC/PI staining based assay (reference value: 0.37%). In kind it is functional.
Data set [14] relates to HCT-116. In words: Induction of apoptosis in human HCT-116 cells assessed as viable cells at 1 uM by Annexin V-FITC/PI staining based assay (reference value: 96.76%). It is filed as functional. The following applies: read-out: Activity.
The subject of data set [15] is HCT-116. In words: Induction of cell cycle arrest in human HCT-116 cells assessed as increase in S-phase cells at 0.5 uM. It is filed as functional.
Data set [16] in a line: Toxicity in nude mouse xenografted with human HCT-116 cells assessed as change in body weight at 60 mg/kg, ip. The following applies: in vivo. It is filed as organism-based. Background: In xenograft studies the graft and the host belong to different species.
Data set [17] has as its system HCT-116. Nature of the data set: Induction of apoptosis in human HCT-116 cells assessed as necrotic cells at 0.125 uM by Annexin V-FITC/PI staining based assay (reference value: 1.05%). It is filed as functional.
Data set [18] deals with HCT-116. Nature of the data set: Antitumor activity against human HCT-116 cells xenografted in nude mouse assessed as tumor growth inhibition at 60 mg/kg, ip measured every 3 days. It is filed as functional. On the set-up: scale not given: the % may be the effect or the level left.
For data set [19], the system named is HCT-116. Nature of the data set: Upregulation of H3K4me2 expression in human HCT-116 cells at 0.125 to 0.5 uM. It is filed as functional, cell-based. As to conditions: dose 0.125-0.5 µM.
Data set [20] concerns HCT-116. Nature of the data set: Induction of cell cycle arrest in human HCT-116 cells assessed as increase in S-phase cells. In kind it is functional, cell-based.
Data set [21] relates to HCT-116. Nature of the data set: Induction of apoptosis in human HCT-116 cells assessed as viable cells at 0.125 uM by Annexin V-FITC/PI staining based assay (reference value: 96.76%). It is filed as functional. The following applies: read-out: Activity.
Data set [22] relates to HCT-116. Nature of the data set: Induction of apoptosis in human HCT-116 cells assessed as viable cells at 0.25 uM by Annexin V-FITC/PI staining based assay (reference value: 96.76%). The following applies: read-out: Activity. It is filed as functional.
The subject of data set [23] is HCT-116. Nature of the data set: Induction of apoptosis in human HCT-116 cells assessed as late apoptotic cells at 0.125 uM by Annexin V-FITC/PI staining based assay (reference value: 0.37%). It is filed as functional.
Data set [24] has as its system HCT-116. In words: Antiproliferative activity against human HCT-116 cells assessed as reduction in EdU positive cells at 0.25 uM. It is filed as functional, cell-based.
Data set [25] relates to HCT-116. In words: Induction of apoptosis in human HCT-116 cells assessed as early apoptotic cells at 0.125 uM by Annexin V-FITC/PI staining based assay (reference value: 1.82%). In kind it is functional.
The subject of data set [26] is HCT-116. In words: Induction of apoptosis in human HCT-116 cells assessed as late apoptotic cells at 0.25 uM by Annexin V-FITC/PI staining based assay (reference value: 0.37%). It is filed as functional.
The subject of data set [27] is HCT-116. Nature of the data set: Upregulation of H3K4me1 expression in human HCT-116 cells at 0.125 to 0.5 uM. The following applies: dose 0.125-0.5 µM. In kind it is functional, cell-based.
Data set [28] concerns HCT-116. Nature of the data set: Induction of apoptosis in human HCT-116 cells assessed as necrotic cells at 0.25 uM by Annexin V-FITC/PI staining based assay (reference value: 1.05%). In kind it is functional.
The test system of data set [29] is HCT-116. In words: Induction of apoptosis in human HCT-116 cells assessed as early apoptotic cells at 0.25 uM by Annexin V-FITC/PI staining based assay (reference value: 1.82%). It is filed as functional.

Description for A549: Antiproliferative activity against human A549 cells by MTT assay
Description for MCF7: Antiproliferative activity against human MCF7 cells by MTT assay
Description for MDA-MB-231: Antiproliferative activity against human MDA-MB-231 cells by MTT assay

A word on the IC50: it is the midpoint of a concentration-inhibition curve. Usually solubility stands for the concentration that dissolves in the medium under given conditions. For `CC1COCC(C)N1S(=O)(=O)c1cccc(C(=O)N/N=C2\CCc3cccc(O)c32)c1` (centres undefined), the IC50 with HCT-116 [1] stood at 0.7 µM; in the data set on MCF7, 0.3 µM; in the data set on DU-145 it was 11.8 µM; in the data set on MDA-MB-231 it was 1 µM; in the data set on A2780, 0.7 µM; with A549 it was 0.3 µM. Further, the concentration in solution in [2] (solubility) came to 30.2 µg/mL (≈ 68.1 µM).

As to `O=C(N/N=C1\CCc2cccc(O)c21)c1cccc(S(=O)(=O)N2CCOCC2)c1`, the IC50 with HCT-116 [1] worked out at 0.4 µM; in the data set with DU-145, 1.9 µM; in the data set with MDA-MB-231, 2.9 µM; with A2780, 0.9 µM; in the data set with A549, 0.9 µM. The compound also displayed a solubility in data set [2] of 27.9 µg/mL (≈ 67.2 µM).

As to `O=C(N/N=C1\CCc2c(O)ccc(O)c21)c1cccc(S(=O)(=O)N2CCOCC2)c1`, the IC50 in the data set with HCT-116 [1] turned out to be 0.9 µM; in the data set with MCF7, 0.6 µM; in the data set with DU-145, 7.6 µM; in the data set with MDA-MB-231, 3.2 µM; in the data set with A2780, 1.6 µM; with A549, 1.4 µM. The same compound showed a solubility in data set [2] of 46.9 µg/mL (≈ 109 µM).

On to `CC1COCC(C)N1S(=O)(=O)c1cccc(C(=O)N/N=C2\CCc3c(Cl)ccc(O)c32)c1` (centres undefined), for which the IC50 came to 0.5 µM with HCT-116 [1]; 0.6 µM in the data set with MCF7; 9.2 µM in the data set with DU-145; 0.9 µM with MDA-MB-231; 0.5 µM in the data set on A2780; 0.5 µM in the data set with A549. Moreover, the solubility in data set [2] is 23.9 µg/mL (≈ 50 µM).

Take `C/C(=N\NC(=O)c1cccc(S(=O)(=O)N2CCN(C)CC2)c1)c1cc(Cl)ccc1O` [SECLIDEMSTAT]: the Activity in the data set with HCT-116 [3] worked out at 1.87%; in the data set with HCT-116 [4], 1.32%; in the data set on HCT-116 [6] it was 0.64%; in the data set on HCT-116 [7], 4.56%; in the data set on HCT-116 [9], 3.22%; in the data set on HCT-116 [10], 2.48%. The Activity in the data set on HCT-116 [11] was determined as 0.97%; in the data set with HCT-116 [12], 5.44%; in the data set with HCT-116 [13], 2.16%; with HCT-116 [15], 63%. Moreover, the viability at 2 µM in the data set with HCT-116 [5] amounted to 91.7%. The half-maximal inhibitory concentration (IC50) in the data set on HCT-116 [1] is 0.6 µM; in the data set on MCF7, 0.4 µM; in the data set on DU-145, 10.5 µM; in the data set with MDA-MB-231, 1.1 µM; in the data set on A2780 it was 2.4 µM; in the data set with A549, 2.7 µM. For the same compound, in the data set on HCT-116 [8], the viability at 0.5 µM came out at 92.1%. Also, the concentration in solution in data set [2] (solubility) was 35.7 µg/mL (≈ 79.2 µM). In addition, in the data set with HCT-116 [14], the viability at 1 µM came to 93.5%.

`O=C(N/N=C1\CCc2c(Cl)ccc(O)c21)c1cccc(S(=O)(=O)N2CCOCC2)c1`: the IC50 in the data set with HCT-116 [1] stood at 0.5 µM; in the data set with MCF7, 0.5 µM; in the data set on DU-145 it was 2.5 µM; in the data set with MDA-MB-231 it was 2.8 µM; in the data set with A549, 1 µM. The concentration in solution in [2] (solubility) was 29 µg/mL (≈ 64.5 µM).

As for `CC1COCC(C)N1S(=O)(=O)c1cccc(C(=O)N/N=C2\CCc3c(O)ccc(O)c32)c1` (centres undefined), the Activity result in data set [16] is “Non-toxic”; with HCT-116 [17], 0.69%; in the data set with HCT-116 [18], 75%; with HCT-116 [19] it was “Active; Slight Increase Observed”; with HCT-116 [20], “Dose-dependent-effect”; with HCT-116 [23], 2.73%. Further, the Activity with HCT-116 [9] was 25.6%; in the data set on HCT-116 [24], “Active; At High Concentration Showed More Potent Activity Than Sp-2577”; in the data set on HCT-116 [25] it was 10.47%; in the data set on HCT-116 [26] it was 1.71%; in the data set on HCT-116 [27], “Active; Slight Increase Observed”; with HCT-116 [10], 2%. Besides, the Activity in the data set with HCT-116 [13] is given as 2.15%; in the data set with HCT-116 [28], 1.28%; in the data set on HCT-116 [15] it was 71%; in the data set on HCT-116 [29] it was 17.28%. In addition, the IC50 in the data set on HCT-116 [1] amounted to 0.1 µM; in the data set on MCF7, 0.1 µM; with DU-145, 2.3 µM; with MDA-MB-231 it was 0.8 µM; with A2780, 0.9 µM; with A549, 0.3 µM. In the data set with HCT-116 [21], the viability at 0.125 µM worked out at 86.1%. Further, in the data set with HCT-116 [22], the viability at 0.25 µM was 79.7%. In the data set on HCT-116 [8], the viability at 0.5 µM was 70.2%. In [2], this compound registered a solubility of 77.2 µg/mL (≈ 168 µM).
